Data set [1] deals with T1, Human recombinant cyclophilin A (CypA) (Homo sapiens, UniProt P62937).
T1 construct: purchased Sigma C3805
As to the kind of experiment: Protease-free PPIase assay, cyclophilin A. In kind it is biochemical. As for the experimental part: (§1) Protease-Free PPIase Assay The protease-free PPIase assay measures the rate of cis to trans conversion of a peptide substrate catalyzed by the enzyme cyclophilin A or D. Addition of a cyclophilin inhibitor (e.g., a test compound) slows the catalyzed rate and a Ki value is obtained. 35 mM HEPES pH 7.8, filtered through a 0.2 μm filter. 50 μM DTT was added prior to use each day and then the buffer was stored on ice. […] Human recombinant 6-His tagged cyclophilin D (CypD), prepared by the University of Edinburgh, was used to generate CypD inhibition data. Succinimide-[…]-nitroanilide (SUC-AAPF-pNA) (from Bachem AG, L-1400), 20 mg/ml prepared in 0.5 M LiCl in trifluoroethanol. All readings were taken with an Agilent 8453 Spectrophotometer which consisted of a cuvette holder, stirrer and chiller to maintain a stirred cuvette temperature of 10.0±0.1° C. The temperature was monitored by the use of temperature probe. […] The inhibitor was diluted in 100% DMSO, and then added to the assay to a maximum final concentration of 0.5% DMSO in the assay. […] The absorbance was measured at 330 nm for 300 s or 500 s for blank runs (NOTE: the substrate was added in one quick injection and the measurements started immediately to minimize mixing errors). A first order rate equation was fitted to the absorbance data, for each concentration of inhibitor, to obtain the rate constant (the first 10 to 15 seconds were excluded, as mixing causes errors in this portion of the curve). The catalytic rate was calculated from the enzymatic rate constant minus the background rate constant. An exponential curve was generated using the catalytic rate constants versus the inhibitor concentration to obtain the Ki value for the inhibitor. The Ki value is indicative of the binding affinity between the test compound and cyclophilin A.

Data set [2] in a line: Water Solubility Assay (onset of precipitation in buffer). To be noted: 25 °C, pH 7.4, aqueous buffer, kinetic from dmso stock.
Method: (§2) The aqueous solubility of a compound of Formula I in buffer (pH 7.8) was measured by recording the onset of precipitation of the compound as a function of increasing concentration. The onset of precipitation, if it occurred, was detected by an increase in absorbance at 650 nm.
(§3) Stock solutions of Control and Test Compounds: 10 mM in 100% DMSO.
(§4) 10 mM stock solutions of control and test compounds were prepared in 100% DMSO.
(§5) Assay buffer (247.5 μl) was placed into a flat bottomed transparent 96-well plate. For blank samples, DMSO (2.5 μl) was added. For test and control samples, 2.5 μl of the appropriate DMSO dilution stocks were added to the appropriate well. All test and control compounds were performed in triplicate.
(§6) The plates were sealed with adhesive plate seal and shaken at 250 rpm at 25° C. for 18 h on a plate shaker. After incubation, the plate seals were taken off and any bubbles observed in wells removed. The plates were read on a SpectraMaxM5 with a 5 s pre-shake at 650 nm.
(§7) Data files were transferred to the appropriate worksheet and the solubility range of the compounds was calculated from the data.
For data set [3], the target named is T2, Human recombinant 6-His tagged cyclophilin D (CypD) (Homo sapiens, UniProt P30405).
T2 construct: 6-His
T2 sequence (P30405 30-207): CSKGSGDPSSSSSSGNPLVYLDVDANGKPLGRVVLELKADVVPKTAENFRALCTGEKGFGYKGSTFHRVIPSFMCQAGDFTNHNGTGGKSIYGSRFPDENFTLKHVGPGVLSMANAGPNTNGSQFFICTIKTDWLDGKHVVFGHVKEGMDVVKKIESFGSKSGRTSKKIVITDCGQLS
The experiment in a line: Protease-free PPIase assay, cyclophilin D. Type of data set: biochemical. As for the experimental part: as §1

The target of another data set is T3, calcineurin (Homo sapiens, UniProt P62937+P63098+Q08209).
T3 construct: purchased Enzo Life Sciences BML-AK804
As to the kind of experiment: Calcineurin Phosphatase (CaN) Assay. Type of data set: biochemical. To be noted: in the presence of CypA, 1:1 complex of inhibitor with CypA. An excerpt: Calcineurin Phosphatase (CaN) Assay
The calcineurin phosphatase assay is a means for estimating the immunosuppressive potential of a test compound. Calcineurin is a serine-threonine protein phosphatase that on activation dephosphorylates members of the nuclear factor of activated T cells (NFAT), which are important in T lymphocyte activation.
To investigate the immunosuppressive potential of exemplary compounds of Formula I, which are cyclosporin analogs, their ability to inhibit calcineurin activity was measured in the presence and absence of CypA.
The CaN assay kit used is based on a colorimetric assay for measuring calcineurin phosphatase activity, and it is commercially available (Enzo Life Sciences and Calbiochem). Calmodulin is also required for calcineurin activity, and RII phosphopeptide is used as an efficient peptide substrate for calcineurin. […] The detection of free phosphate released is based on the classic Malachite green assay.
Enzo Life Sciences CaN Assay Kit: BML-AK804
For samples ‘without CypA’, a 4-point dilution series of the inhibitor was prepared in duplicate to obtain a final assay concentration of 10, 1, 0.1 and 0.01 μM. For samples ‘with CypA’, a 7-point dilution series was prepared to obtain a 1:1 complex of the inhibitor with CypA; the inhibitor and CypA final assay concentrations of 10, 3.33, 1.11, 0.37, 0.12, 0.04, 0.014 μM were prepared.
using the half area 96 well plates supplied with the kit, 10 μl UPW was added to duplicate wells to provide the non-inhibited control. 10 μl of the inhibitor or the inhibitor/CypA complex was added to the appropriate sample wells. 25 μl of the 2× assay buffer with calmodulin (CaM) was added to all wells, then 5 μl of calcineurin phosphatase (CaN) was added to all wells (40 U per well final concentration) except duplicate ‘no calcineurin blank’ wells to which 5 μL 1× assay buffer was added. The assay plate was placed in an oven at 30° C. for 15 minutes to equilibrate to the reaction temperature. The reaction was started by the addition of 10 μl RII-peptide (0.15 mM final concentration). The reaction was allowed to proceed at 30° C. for a time period in which the reaction is linear for about 60 minutes. The reaction was then terminated by adding 100 μl of the Malachite Green reagent. The color was allowed to develop for 15-30 minutes at room temperature before the absorbance at 620 nm was measured using a plate reader (Molecular Devices—SpectraMax M5). The data were analyzed by subtracting ‘no calcineurin blank’ from all the absorbance readings and plotting the background corrected absorbances against Log10 inhibitor concentration. A sigmoidal-dose response curve was fitted to the data using GraphPad Prism Software.
It exerts its immunosuppressive activity by binding to CypA to form a complex, which then binds to calcineurin and thereby inhibits calcineurin activity.

Another data set is described as follows: physchem. To be noted: 25 °C, pH 7.4, aqueous buffer, kinetic from dmso stock.
[4] abbreviates: human recombinant CypA, 10 °C, SUC-AAPF-pNA substrate, read-out: CypA Protease-free PPIase Assay Ki.
[5] abbreviates: human recombinant 6-His CypD, 10 °C, SUC-AAPF-pNA substrate, read-out: CypD Protease-free PPIase Assay Ki.

In patent US9914755B2, “Cyclosporin derivatives wherein the MeBmt sidechain has been cyclized” (Allergan, Inc., priority 2015, dated 2018) one finds Ki, solubility and IC50 data, which are given here for five compounds.

Converted amounts (≈) assume the structure as drawn. Read-outs that look alike come from different tables or passages of the source. Where only a bound is given, the exact number is not on record here.

T1 sequence (P62937 whole entry): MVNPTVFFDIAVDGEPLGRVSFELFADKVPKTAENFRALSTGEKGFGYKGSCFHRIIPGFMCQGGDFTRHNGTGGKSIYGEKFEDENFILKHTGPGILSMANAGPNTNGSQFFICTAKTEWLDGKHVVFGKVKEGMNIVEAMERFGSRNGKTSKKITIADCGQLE
Method for physchem: as §2, §3, §4, §5, §6, §7

A word on the Ki: it is a dissociation constant, usually derived from enzyme kinetics or from competition with a known ligand. As a reminder, the solubility is the dissolved amount per volume that the medium holds. Low readings indicate little dissolved substance, high ones much dissolved substance. In the case of `CC(C)C[C@@H]1C(=O)N(C)[C@H](CC(C)C)C(=O)N(C)[C@H](C(C)C)C(=O)N(C)[C@H]([C@@H]2OCC[C@H]2C)C(=O)N[C@H](C)C(=O)N(C)CC(=O)N(C)[C@@H](CC(C)C)C(=O)N[C@H](C(C)C)C(=O)N(C)[C@H](CC(C)C)C(=O)N[C@H](C)C(=O)N[C@@H](C)C(=O)N1C` [Compound 9, [(2S)-2-(methylamino)-2-[(2R,3R)-3-methyltetrahydrofuran-2-yl]acetic acid]^1 cyclosporin B], the inhibitory constant (Ki) in data set [1] is 8600 nM; in data set [3], 200 nM. For the same compound, the solubility at 18 h in data set [2] was more than 100 µM.
Broadly, the IC50 is the concentration needed to halve the response being measured. On to `CC[C@H]1NC(=O)[C@H]([C@H]2NCC[C@H]2C)N(C)C(=O)[C@@H](C(C)C)N(C)C(=O)[C@@H](CC(C)C)N(C)C(=O)[C@@H](CC(C)C)N(C)C(=O)[C@H](C)NC(=O)[C@@H](C)NC(=O)[C@@H](CC(C)C)N(C)C(=O)[C@@H](C(C)C)NC(=O)[C@H](CC(C)C)N(C)C(=O)[C@@H](C)N(C)C1=O` [Compound 20, [(2S)-2-(methylamino)-2-[(2S,3R)-3-methylpyrrolidin-2-yl]acetic acid]^1 [(R)-methyl-Sar]^3 cyclosporin A], for which the concentration for half-maximal inhibition (IC50) on calcineurin is more than 10000 nM. In addition, the Ki in data set [1] (setting [4]) was determined as 149 nM; in data set [3] (setting [5]), 36 nM. Also, in the data set “physchem”, the solubility at 18 h is more than 100 µM.
Regarding `CC[C@H]1NC(=O)[C@@H]([C@@H]2OC(=O)N(C)C[C@H]2C)N(C)C(=O)[C@@H](C(C)C)N(C)C(=O)[C@@H](CC(C)C)N(C)C(=O)[C@@H](CC(C)C)N(C)C(=O)[C@H](C)NC(=O)[C@@H](C)NC(=O)[C@@H](CC(C)C)N(C)C(=O)[C@@H](C(C)C)NC(=O)[C@H](CC(C)C)N(C)C(=O)[C@@H](C)N(C)C1=O` [Compound 22], the IC50 at calcineurin is more than 10000 nM. Also, the Ki in data set [1] (setting [4]) amounted to 315 nM; in data set [3] (setting [5]), 160 nM. In “physchem”, this compound showed a solubility at 18 h of more than 100 µM.
In the case of `CC[C@H]1NC(=O)[C@@H]([C@@H]2OCN(C)C[C@H]2C)N(C)C(=O)[C@@H](C(C)C)N(C)C(=O)[C@@H](CC(C)C)N(C)C(=O)[C@@H](CC(C)C)N(C)C(=O)[C@H](C)NC(=O)[C@@H](C)NC(=O)[C@@H](CC(C)C)N(C)C(=O)[C@@H](C(C)C)NC(=O)[C@H](CC(C)C)N(C)C(=O)[C@@H](C)N(C)C1=O` [Compound 24], at calcineurin, the IC50 was more than 10000 nM. In addition, the values for the inhibition constant (Ki) in data set [1] (setting [4]) and in data set [3] (setting [5]) were 550 nM and 79 nM, respectively. The solubility at 18 h in the data set “physchem” was more than 100 µM.
For `CC[C@H]1NC(=O)[C@@H](C2OC(C)C[C@H]2C)N(C)C(=O)[C@@H](C(C)C)N(C)C(=O)[C@@H](CC(C)C)N(C)C(=O)[C@@H](CC(C)C)N(C)C(=O)[C@H](C)NC(=O)[C@@H](C)NC(=O)[C@@H](CC(C)C)N(C)C(=O)[C@@H](C(C)C)NC(=O)[C@H](CC(C)C)N(C)C(=O)[C@@H](C)N(C)C1=O` (stereo partly drawn) [Compound 26, [(2S)-2-[(2R,3R)-3,5-dimethyltetrahydrofuran-2-yl]-2-(methylamino)acetic acid]^1 [(R)-methyl-Sar]^3 cyclosporin A], in that order: more than 10000 nM, 275 nM, 64 nM and 75 µM (≈ 90.2 µg/mL).
